For this test, the system named is PANC-1 pERK. Put plainly: Phospho-ERK 1/2 assay. In kind it is cell-based. Particulars: PANC-1 cells, compound incubation 3 hours, pERK normalised with GAPDH antibody staining. Here is the method: Allow PNAC-1 cell growth in a T75 flask in DMEM and 10% 1 fetal calf serum (FCS; Gibco®), using standard tissue culture procedures until ~80% confluency is achieved. Day 1, seed 6000 cells/well in 384 well plate and incubate at 37° C., 5% CO2. Add diluted compound by Echo 550, final DMSO is 0.5%, incubate cells at 37° C., 5% CO2 for 3 hours. Then, remove medium and fix cells with 3.7% formaldehyde in PBS (PFA) by Apricot. Wash with PBS once. Permeabilize cells with cold 100% methanol and repeat wash once with PBS once. Add Li-Cor blocking buffer to each well and incubate 1.5 hours at RT. Remove blocking buffer and add primary antibody mixture (rabbit anti pERK, mouse anti GAPDH). Incubate at 4° C. overnight. Day 2, wash with PBST (Tween-20 in PBS) with total 3 times and then add secondary antibody mixture (goat anti rabbit 800CW (1:800 dilution in the combined solution) and goat anti mouse 680RD (1:800 dilution in the combined solution)), incubate for 60 minutes at RT away from light. Repeat washing with PBST 3 times. After final wash, centrifuge plate up-side-down at 1000 rpm to remove wash solution completely from wells. Before plate scanning, clean the bottom plate surface and the Odyssey© Imager scanning bed (if applicable) with moist, lint-free tissue to avoid any obstructions during scanning. Scan plate with detection in both 700 and 800 nm channels.

Structures are written as SMILES.

In general, IC50 refers to the midpoint of a concentration-inhibition curve. Low values mean higher potency, high ones lower potency.

On to `C=C1CN2CCC[C@@]2(Cn2c(=O)nc3c4c(nc(-c5cc(O)cc6ccc(F)c(CC)c56)c(F)c42)OC[C@@H]2[C@@H]4CC[C@H](CN32)N4)C1` (single isomer, unassigned) [Example 46a], for which the IC50 (Homo sapiens, PANC-1, 3 h) was 5.9 nM. `C=C1CN2CCC[C@]2(Cn2c(=O)nc3c4c(nc(-c5cc(O)cc6ccc(F)c(CC)c56)c(F)c42)OC[C@@H]2[C@@H]4CC[C@H](CN32)N4)C1` (single isomer, unassigned) [Example 46b] displayed an IC50 (Homo sapiens, PANC-1, 3 h) of 28 nM. Turning to `C#Cc1c(F)ccc2cccc(-c3nc4c5c(nc(=O)n(C[C@]67CCCN6CC(=C)C7)c5c3F)N3C[C@H]5CC[C@H](N5)[C@H]3[C@H](C)O4)c12` (single isomer, unassigned) [Example 200b], where the note is “Homo sapiens, PANC-1, 3 h”, the IC50 worked out at 697 nM. The same measure, in the same setting: the same measure for `C#Cc1c(F)ccc2cccc(-c3nc4c5c(nc(=O)n(C[C@]67CC(=C)CN6C[C@@H](F)C7)c5c3F)N3C[C@H]5CC[C@H](N5)[C@H]3[C@H](C)O4)c12` (single isomer, unassigned) [Example 202b]: 991 nM. For `CCc1c(F)ccc2cc(O)cc(-c3nc4c5c(nc(=O)n(C[C@@]67CCCN6C[C@H](F)C7)c5c3F)N3C[C@@](C)(O)CCC3CO4)c12` (single isomer, unassigned) [Example 350a1], half-maximal inhibition (Homo sapiens, PANC-1, 3 h) (IC50) required 151 nM. As to `C#Cc1c(F)ccc2cccc(-c3nc4c5c(nc(=O)n(CC(C)(CO)N(C)C)c5c3F)N3C[C@H]5CC[C@H](N5)[C@H]3[C@H](C)O4)c12` (single isomer, unassigned) [Example 365b], the IC50 was 110 nM. On the same count and under the same terms, under `C#Cc1c(F)ccc2cccc(-c3nc4c5c(nc(=O)n(C6C7CC6CN(C)C7)c5c3F)N3C[C@H]5CC[C@H](N5)[C@H]3[C@H](C)O4)c12` (single isomer, unassigned) [Example 371a] stands 304 nM. Regarding `C#Cc1c(F)ccc2cccc(-c3nc4c5c(nc(=O)n(C6C7CC6CN(C)C7)c5c3F)N3C[C@H]5CC[C@H](N5)[C@H]3[C@H](C)O4)c12` (single isomer, unassigned) [Example 371b], half-maximal inhibition (IC50) was put at 794 nM. The compound `C#Cc1c(F)ccc2cccc(-c3nc4c5c(nc(=O)n(C(C)[C@H]6CCN6C)c5c3F)N3C[C@H]5CC[C@H](N5)[C@H]3[C@H](C)O4)c12` (single isomer, unassigned) [Example 372a] returned an IC50 of 391 nM. Take `C#Cc1c(F)ccc2cccc(-c3nc4c5c(nc(=O)n(C(C)[C@H]6CCN6C)c5c3F)N3C[C@H]5CC[C@H](N5)[C@H]3[C@H](C)O4)c12` (single isomer, unassigned) [Example 372b]: inhibition was half-maximal at 70 nM (IC50). In turn, `CCc1c(F)ccc2cc(O)cc(-c3nc4c5c(nc(=O)n(CC(C)(CO)N(C)C)c5c3F)N3C[C@H]5CC[C@H](N5)[C@H]3[C@H](C)O4)c12` (single isomer, unassigned) [Example 373b] returned an IC50 of 137 nM. As for `CCc1c(F)ccc2cc(O)cc(-c3nc4c5c(nc(=O)n(C(C)[C@H]6CCN6C)c5c3F)N3C[C@H]5CC[C@H](N5)[C@H]3[C@H](C)O4)c12` (single isomer, unassigned) [Example 376a], the IC50 (Homo sapiens, PANC-1, 3 h) was determined as 145 nM. In the case of `CCc1c(F)ccc2cc(O)cc(-c3nc4c5c(nc(=O)n(C(C)[C@H]6CCN6C)c5c3F)N3C[C@H]5CC[C@H](N5)[C@H]3[C@H](C)O4)c12` (single isomer, unassigned) [Example 376b], half-maximal inhibition (IC50) required 133 nM. The compound `C#Cc1c(F)ccc2cccc(-c3nc4c5c(nc(=O)n(C[C@@]67CCCN6C[C@H](F)C7)c5c3F)N3C[C@H]5CC[C@H](N5)[C@H]3CO4)c12` [Example 1, (5aS,6S,9R)-2-(8-ethynyl-7-fluoronaphthalen-1-yl)-1-fluoro-13-(((2R,7aS)-2-fluorotetrahydro-1H-pyrrolizin-7a(5H)-yl)methyl)-5a,6,7,8,9,10-hexahydro-5H-4-oxa-3,10a,11,13,14-pentaaza-6,9-methanonaphtho[1,8-ab]heptalen-12(13H)-one] showed an IC50 (Homo sapiens, PANC-1, 3 h) of 386 nM. For the compound `C#Cc1c(F)ccc2cccc(-c3nc4c5c(nc(=O)n(CC67CCCN6CC(=C)C7)c5c3F)N3C[C@H]5CC[C@H](N5)[C@H]3CO4)c12` (stereo partly drawn) [Example 2], half-maximal inhibition (Homo sapiens, PANC-1, 3 h) (IC50) was put at 15 nM. As to `C#Cc1c(F)ccc2cc(O)cc(-c3nc4c5c(nc(=O)n(C[C@@]67CCCN6C[C@H](F)C7)c5c3F)N3C[C@H]5CC[C@H](N5)[C@H]3CO4)c12` [Example 23, (5aS,6S,9R)-2-(8-ethynyl-7-fluoro-3-hydroxynaphthalen-1-yl)-1-fluoro-13-(((2R,7aS)-2-fluorotetrahydro-1H-pyrrolizin-7a(5H)-yl)methyl)-5a,6,7,8,9,10-hexahydro-5H-4-oxa-3,10a,11,13,14-pentaaza-6,9-methanonaphtho[1,8-ab]heptalen-12(13H)-one], the IC50 (Homo sapiens) worked out at 96 nM. `C#Cc1c(F)ccc2cc(O)cc(-c3nc4c5c(nc(=O)n(CC67CCCN6CC(=C)C7)c5c3F)N3C[C@H]5CC[C@H](N5)[C@H]3CO4)c12` (stereo partly drawn) [Example 24] displayed an IC50 (Homo sapiens, PANC-1, 3 h) of 85 nM. `CCc1c(F)ccc2cc(O)cc(-c3nc4c5c(nc(=O)n(C[C@@]67CCCN6C[C@H](F)C7)c5c3F)N3C[C@H]5CC[C@H](N5)[C@H]3CO4)c12` [Example 45, (8aS,9S,12R)-5-(8-ethyl-7-fluoro-3-hydroxynaphthalen-1-yl)-4-fluoro-3-(((2R,7aS)-2-fluorotetrahydro-1H-pyrrolizin-7a(5H)-yl)methyl)-8a,9,10,11,12,13-hexahydro-8H-7-oxa-1,3,6,13a,14-pentaaza-9,12-methanonaphtho[1,8-ab]heptalen-2(3H)-one] displayed an IC50 (Homo sapiens, PANC-1, 3 h) of 23 nM.

`C=C1CN2CC(=C)CC2(Cn2c(=O)nc3c4c(nc(-c5cc(O)cc6ccc(F)c(CC)c56)c(F)c42)OC[C@@H]2[C@@H]4CC[C@H](CN32)N4)C1` [Example 47] returned an IC50 (Homo sapiens, PANC-1, 3 h) of 629 nM. For the compound `C#Cc1c(F)ccc2cccc(-c3nc4c5c(nc(=O)n(C[C@@]67CCCN6C[C@H](F)C7)c5c3F)N3C[C@H]5CC[C@H](N5)[C@H]3[C@H](C)O4)c12` [Example 199, (5S,5aS,6S,9R)-2-(8-ethynyl-7-fluoronaphthalen-1-yl)-1-fluoro-13-(((2R,7aS)-2-fluorotetrahydro-1H-pyrrolizin-7a(5H)-yl)methyl)-5-methyl-5a,6,7,8,9,10-hexahydro-5H-4-oxa-3,10a,11,13,14-pentaaza-6,9-methanonaphtho[1,8-ab]heptalen-12(13H)-one], inhibition (Homo sapiens, PANC-1, 3 h) was half-maximal at 37 nM (IC50).

`C#Cc1c(F)ccc2cc(O)cc(-c3nc4c5c(nc(=O)n(CC67CCCN6CC(=C)C7)c5c3F)N3C[C@H]5CC[C@H](N5)[C@H]3[C@H](C)O4)c12` (stereo partly drawn) [Example 222] gave an IC50 (Homo sapiens, PANC-1, 3 h) of 113 nM.

With `CCc1c(F)ccc2cc(O)cc(-c3nc4c5c(nc(=O)n(C[C@@]67CCCN6C[C@H](F)C7)c5c3F)N3C[C@H]5CC[C@H](N5)[C@H]3[C@H](C)O4)c12` [Example 227], the IC50 (Homo sapiens, PANC-1, 3 h) is 5.2 nM. As to `C=C1CN2CCCC2(Cn2c(=O)nc3c4c(nc(-c5cc(O)cc6ccc(F)c(CC)c56)c(F)c42)O[C@@H](C)[C@@H]2[C@@H]4CC[C@H](CN32)N4)C1` (stereo partly drawn) [Example 228], the IC50 (Homo sapiens, PANC-1, 3 h) was found to be 19 nM. The compound `C#Cc1c(F)ccc2cc(O)cc(-c3nc4c5c(cc(=O)n(C[C@@]67CCCN6CC(=C)C7)c5c3F)N3C[C@H]5CC[C@H](N5)[C@H]3[C@H](C)O4)c12` [Example 330, (5S,5aS,6S,9R)-2-(8-ethynyl-7-fluoro-3-hydroxynaphthalen-1-yl)-1-fluoro-5-methyl-14-(((S)-2-methylenetetrahydro-1H-pyrrolizin-7a(5H)-yl)methyl)-5a,6,7,8,9,10-hexahydro-5H-6,9-epiminoazepino[2′,1′:3,4][1,4] oxazepino[5,6,7-de][1,6]naphthyridin-13(14H)-one] returned an IC50 (Homo sapiens, PANC-1, 3 h) of 171 nM.

Compound `C#Cc1c(F)ccc2cc(O)cc(-c3c(F)c4c5c(cc(=O)n(C[C@@]67CCCN6C[C@H](F)C7)c5c3F)N3C[C@H]5CC[C@H](N5)[C@H]3CO4)c12` [Example 332, (5aS,6S,9R)-2-(8-ethynyl-7-fluoro-3-hydroxynaphthalen-1-yl)-1,3-difluoro-14-(((2R,7aS)-2-fluorotetrahydro-1H-pyrrolizin-7a(5H)-yl)methyl)-5a,6,7,8,9,10-hexahydro-5H-6,9-epiminoazepino[2′,1′:3,4][1,4] oxazepino[5,6,7-de]quinolin-13(14H)-one] registered an IC50 (Homo sapiens, PANC-1, 3 h) of 778 nM. For the setting “Homo sapiens, PANC-1, 3 h”, `C#Cc1c(F)ccc2cccc(-c3nc4c5c(nc(=O)n([C@H](C)CN6[C@@H]7CC[C@H]6COC7)c5c3F)N3C[C@H]5CC[C@H](N5)[C@H]3[C@H](C)O4)c12` [Example 341, (5S,5aS,6S,9R)-13-((R)-1-((1R,5S)-3-oxa-8-azabicyclo[3.2.1]octan-8-yl)propan-2-yl)-2-(8-ethynyl-7-fluoronaphthalen-1-yl)-1-fluoro-5-methyl-5a,6,7,8,9,10-hexahydro-5H-4-oxa-3,10a,11,13,14-pentaaza-6,9-methanonaphtho[1,8-ab]heptalen-12(13H)-one] had an IC50 of 70 nM. Where the note is “Homo sapiens, PANC-1, 3 h”, `C#Cc1c(F)ccc2cccc(-c3nc4c5c(nc(=O)n(C[C@@]6(C)CCN6C)c5c3F)N3C[C@H]5CC[C@H](N5)[C@H]3[C@H](C)O4)c12` [Example 357, (5S,5aS,6S,9R)-13-(((R)-1,2-dimethylazetidin-2-yl)methyl)-2-(8-ethynyl-7-fluoronaphthalen-1-yl)-1-fluoro-5-methyl-5a,6,7,8,9,10-hexahydro-5H-4-oxa-3,10a,11,13,14-pentaaza-6,9-methanonaphtho[1,8-ab]heptalen-12(13H)-one] yielded a half-inhibitory concentration (IC50) of 123 nM.
